Measured values: patent publication US8802597B2, “Herbicidal pyrimidines” (E I du Pont de Nemours and Company, priority 2003, dated 2014)

Test system: winter barley (Hordeum vulgare)
Assay: Test C postemergence
Type: in vivo
Conditions: for Plant response rating, Barley: 250 g ai/ha, scale 0 to 100; for plant injury at 62 g/ha / plant injury at 125 g/ha: Hordeum vulgare, post-emergence, read-out: Barley plant response rating; for plant injury at 62 g/ha / plant injury at 125 g/ha / Barley plant response rating: scale 0 to 100 (0 no effect, 100 complete control)
Procedure, shortened: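 We sprayed seeded pots preemergence and 2–18 cm seedlings postemergence with test chemicals in a non-phytotoxic solvent mixture including surfactant. Greenhouse plants were visually compared with untreated controls at 12 to 14 days and scored 0 (no effect) to 100 (complete control).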

Row | SMILES | Plant response rating (scale of 0 to 100), Barley (31 g ai/ha) | Plant response rating, Barley | plant injury at 62 g/ha (62 g ai/ha) [%] | plant injury at 125 g/ha (125 g ai/ha) [%] | Barley plant response rating (62 g ai/ha) | Barley plant response rating (125 g ai/ha) | Plant response rating (scale of 0 to 100), Barley (16 g ai/ha)
1 | Nc1nc(C2CC2)nc(C(=O)OCc2ccccc2)c1Cl [Compound 78, phenylmethyl 6-amino-5-chloro-2-cyclopropyl-4-pyrimidinecarboxylate] | 5 | 90 | 5 | 30 |  |  | 
2 | CCOC(=O)C(Cl)(Cl)c1nc(C2CC2)nc(N)c1Br [Compound 34] | 20 | 40 |  |  | 20 | 30 | 
3 | Nc1nc(-c2ccc(Cl)cc2)nc(C(=O)O)c1Cl [Compound 65, 6-amino-5-chloro-2-(4-chlorophenyl)-4-pyrimidinecarboxylic acid] | 40 |  | 50 | 50 |  |  | 40
4 | CNc1nc(C2CC2)nc(C(=O)OC)c1Cl [Compound 79] | 30 |  | 35 | 35 |  |  | 0
5 | Nc1nc(-c2ccc(Br)cc2)nc(C(=O)O)c1Br [Compound 136] | 50 |  |  |  | 50 | 55 | 40
6 | CCOC(=O)c1nc(-c2ccc(Cl)cc2)nc(N)c1Cl [Compound 64, ethyl 6-amino-5-chloro-2-(4-chlorophenyl)-4-pyrimidinecarboxylate] | 20 | 100 | 20 |  |  |  | 
